Laboratory results reported in patent US9604998B2, “Inhibitors of the renal outer medullary potassium channel” (MERCK SHARP & DOHME CORP., priority 2013, dated 2017).
Counter-ions that a name gives are not always drawn. Like-named read-outs stand apart in the source and are kept apart here.

Legend:
Kir1.1 (ROMK1) = Kir1.1 (ROMK1) (Homo sapiens (Human), UniProt P48048); test: Electrophysiology Assay (whole cell voltage clamp, IonWorks Quattro); assay type: cell-based; conditions: block during voltage step to 0 mV
Experimental: Chinese hamster ovary cells stably expressing Kir1.1 channels were maintained in T-75 flasks in cell culture media in a humidified 10% CO2 incubator at 37° C. Prior to an experiment, Kir1.1 expression was induced by overnight incubation with 1 mM sodium butyrate. […] After centrifugation, the cell pellet was resuspended in approximately 4.0 mL of bath solution and placed in the IonWorks instrument. The intracellular solution consisted of (in mM): 80 K gluconate, 40 KCl, 20 KF, 3.2 MgCl2, 3 EGTA, 5 Hepes, pH 7.4. Electrical access to the cytoplasm was achieved by perforation in 0.13 mg/mL amphotericin B for 4 min. […] Voltage protocols and current recordings were performed using the IonWorks HT software/hardware system. Currents were sampled at 1 kHz. No correction for liquid junction potentials was used. The test pulse, consisting of a 100 ms step to 0 mV from a holding potential of −70 mV, followed by a 100 ms voltage ramp from −70 mV to +70 mV, was applied before and after a 6 min compound incubation period. Test compounds were prepared by diluting DMSO stock solutions into the bath solution at 3× the final concentration and placed in the instrument in 96-well polypropylene plates. Current amplitudes were measured using the IonWorks software.

hROMK (hKir1.1) = hROMK (hKir1.1) (Homo sapiens (Human), UniProt P48048); test: Thallium Flux Assay (ROMK channel functional thallium flux, FLIPR-Tetra); assay type: cell-based
Experimental: HEK293 cells stably expressing hROMK (hKir1.1) were grown at 37° C. in a 10% CO2 humidified incubator in complete growth media: Dulbecco's Modified Eagle Medium supplemented with non-essential amino acids, Penicillin/Streptomycin/Glutamine, G418 and FBS. At >80% confluency, aspirate the media from the flask and rinse with 10 mL Calcium/Magnesium-free PBS. […] To dislodge the cell, gently bang the side of the flask with your hand. Triturate the cells completely and then transfer the cells to 25 mL complete media. Centrifuge at 1,500 rpm for 6 min followed by resuspension in complete growth media and determine cell concentration.
Compound Buffer (per microplate): 20 mL Probenecid/Assay Buffer; 0.3 mM ouabain (10 mM ouabain in water can be stored in amber bottle/aluminum foil at room temperature); Test compound
Stimulant Buffer (prepared at 5× final concentration in 1× FluxOR™ Chloride-Free Buffer): 7.5 mM Thallium sulfate and […] (to give a final assay concentration of 3 mM Thallium/0.3 mM Potassium). Store at 4° C. when not in use. If kept sterile, this solution is good for months.
The ROMK channel functional thallium flux assay is performed in 384 wells, using the FLIPR-Tetra instrument. HEK-hKir1.1 cells are seeded in Poly-D-Lysine microplates and kept in a 37° C.-10% CO2 incubator overnight. On the day of the experiment, the growth media is replaced with the FluxOR™ reagent loading buffer and incubated, protected from light, at ambient temperature (23-25° C.) for 90 min. The loading buffer is replaced with assay buffer±test compound followed by 30 min incubation at ambient temperature, where the Thallium/Potassium stimulant is added to the microplate.
1. Seed HEK-hKir1.1 cells (50 μl at 20,000 cells/well) in 384-well PDL coated Microplates
2. Allow cells to adhere overnight in humidified 37° C./10% CO2 incubator
3. Completely remove cell growth media from microplate and replace with 25 μl loading buffer
4. Incubate Microplate at room temperature, protected form light, for 90 min
5. Remove loading buffer and replace with 25 μl 1× Assay Buffer±test compound.
6. Incubate microplate at room temperature, protected from light, for 30 min
7. […] Excitation=400 nm, Emission=460 & 580 nm. Collect data for ˜10 min.
The fluorescence intensity of wells containing 3 μM of a standard control ROMK inhibitor of the present invention is used to define the ROMK-sensitive component of thallium flux. Fluorescence in the presence of test compounds is normalized to control values to provide % fluorescence change.

[1] = Chinese hamster ovary cells stably expressing Kir1.1, read-out: Electrophysiology IC50
[2] = HEK293 cells stably expressing hROMK (hKir1.1), read-out: Thallium Flux IC50
[3] = Electrophysiology IC50, Chinese hamster ovary cells stably expressing Kir1.1
[4] = Thallium Flux IC50, HEK293 cells stably expressing hROMK (hKir1.1)

hROMK (hKir1.1), sequence (P48048 whole entry): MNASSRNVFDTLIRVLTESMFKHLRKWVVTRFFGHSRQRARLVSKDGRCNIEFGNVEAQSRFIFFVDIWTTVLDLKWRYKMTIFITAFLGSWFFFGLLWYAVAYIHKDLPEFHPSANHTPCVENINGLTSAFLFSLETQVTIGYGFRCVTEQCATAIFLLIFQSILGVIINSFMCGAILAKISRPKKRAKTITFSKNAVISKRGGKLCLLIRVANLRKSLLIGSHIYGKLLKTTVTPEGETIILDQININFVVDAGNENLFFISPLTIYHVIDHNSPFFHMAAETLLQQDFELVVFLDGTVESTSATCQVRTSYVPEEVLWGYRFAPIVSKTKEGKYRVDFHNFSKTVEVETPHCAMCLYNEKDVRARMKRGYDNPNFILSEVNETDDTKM
Kir1.1 (ROMK1), sequence (P48048 whole entry, species assumed): as the sequence (P48048 whole entry) above

Compound	IC50 (Kir1.1 (ROMK1); [1])	IC50 (hROMK (hKir1.1); [2])	IC50 (Kir1.1 (ROMK1); [3])	IC50 (hROMK (hKir1.1); [4])
COc1cc([C@H]2CN3CCN(CCc4ccc5c(c4C)COC5=O)C[C@@H]3CO2)ccc1C#N [Example 75]	70 nM	110 nM		
Cc1c([C@H]2CN3CCN(CCc4ccc5c(c4C)COC5=O)C[C@H]3CO2)ccc(F)c1C#N [Example 79]	70 nM	270 nM		
Cc1c([C@@H]2CN3CCN(CCc4ccc5c(c4)C[C@H](C)OC5=O)C[C@H]3CO2)ccc2c1COC2=O [Example 86]	80 nM	80 nM		
COc1cc(C(O)CN2CCN3C[C@@H](c4ccc5c(c4)COC5=O)OC[C@@H]3C2)c(Cl)cc1C#N (stereo partly drawn) [Example 10, (3R,9aS)-8-[2-(2-chloro-4-cyano-5-methoxyphenyl)-2-hydroxyethyl]-3-(1-oxo-1,3-dihydro-2-benzofuran-5-yl)octahydropyrazino[2,1-c][1,4]oxazin-5-ium trifluoroacetate]	130 nM	550 nM		
Cc1c(CCN2CCN3C[C@@H](c4ccc5c(c4)COC5=O)OC[C@@H]3C2)ccc2c1COC2=O [Example 69]	20 nM	60 nM		
Cc1c([C@H](O)CN2CCN3C[C@@H](c4ccc5c(c4)COC5=O)OC[C@@H]3C2)ccc2c1COC2=O [Example 12, (3R,9aS)-8-[(2S)-2-hydroxy-2-(4-methyl-1-oxo-1,3-dihydro-2-benzofuran-5-yl)ethyl]-3-(1-oxo-1,3-dihydro-2-benzofuran-5-yl)octahydropyrazino[2,1-c][1,4]oxazin-5-ium chloride]	30 nM	190 nM		
Cc1cc2c(cc1C(O)CN1CCN3C[C@@H](c4ccc(F)c(C#N)c4C)OC[C@@H]3C1)COC2=O (single isomer, unassigned) [Example 25, trifluoroacetate]			190 nM	340 nM
COc1cc(C(O)CN2CCN3C[C@@H](c4ccc5c(c4C)COC5=O)OC[C@@H]3C2)c(F)cc1C#N (single isomer, unassigned) [Example 37]	110 nM	470 nM		
Cc1c([C@@H]2CN3CCN(CCc4ccc5c(c4)CC(C)OC5=O)C[C@H]3CO2)ccc2c1COC2=O (stereo partly drawn) [Example 81]	120 nM	90 nM		
Cc1c(CCN2CCN3C[C@@H](c4ccc5c(c4C)COC5=O)OC[C@@H]3C2)ccc2c1COC2=O [Example 57, 4-Methyl-5-((3R,9aS)-8-(2-(4-methyl-1-oxo-1,3-dihydroisobenzofuran-5-yl)ethyl)octahydropyrazino[2,1-c][1,4]oxazin-3-yl)isobenzofuran-1(3H)-one]	90 nM	30 nM		
Cc1cc2c(cc1C(O)CN1CCN3C[C@@H](c4ccc5c(c4C)COC5=O)OC[C@@H]3C1)COC2=O (single isomer, unassigned) [Example 43]	130 nM	210 nM		
COc1cc(C(O)CN2CCN3C[C@@H](c4ccc5c(c4C)COC5=O)OC[C@@H]3C2)cc(F)c1C#N (stereo partly drawn) [Example 48, (3R,9aS)-8-[2-(4-cyano-3-fluoro-5-methoxyphenyl)-2-hydroxyethyl]-3-(4-methyl-1-oxo-1,3-dihydro-2-benzofuran-5-yl)octahydropyrazino[2,1-c][1,4]oxazin-5-ium chloride]	210 nM	220 nM		
Cc1c([C@@H](O)CN2CCN3C[C@H](c4ccc5c(c4C)COC5=O)SC[C@@H]3C2)ccc2c1COC2=O [Example 55, 5-{(3S,9aS)-8-[(2R)-2-hydroxy-2-(4-methyl-1-oxo-1,3-dihydro-2-bcnzofuran-5-yl)ethyl]octahydropyrazino[2,1-c][1,4]thiazin-3-yl}-4-methyl-2-benzofuran-1(3H)-one]	90 nM	330 nM		
Cc1c(CCN2CCN3C[C@@H](c4ccc5c(c4)CCOC5=O)OC[C@@H]3C2)ccc2c1COC2=O [Example 73]	300 nM	570 nM		
COc1cc(C(O)CN2CCN3C[C@@H](c4ccc5c(c4C)COC5=O)OC[C@@H]3C2)cc(F)c1C#N (single isomer, unassigned) [Example 54]	170 nM	340 nM		
Cc1c([C@@H]2CN3CCN(CCc4ccc5c(c4)COC5=O)C[C@H]3CN2)ccc(F)c1C#N [Example 103]	60 nM	140 nM		
Cc1c([C@H]2CN3CCN(CC(O)c4ccc(-n5cnnn5)nc4)C[C@H]3CO2)ccc(F)c1C#N (single isomer, unassigned) [Example 17]	150 nM	850 nM		
Cc1c([C@@H]2CN3CCN(CCc4ccc5c(c4)COC5=O)C[C@@H]3CN2)ccc(F)c1C#N [Example 105]	150 nM	290 nM		
Cc1c([C@@H]2CN3CCN(CC(O)c4cc(F)c(C#N)c(F)c4)C[C@H]3CO2)ccc2c1COC2=O (stereo partly drawn) [Example 38, (3R,9aS)-8-[2-(4-cyano-3,5-difluorophenyl)-2-hydroxyethyl]-3-(4-methyl-1-oxo-1,3-dihydro-2-benzofuran-5-yl)octahydropyrazino[2,1-c][1,4]oxazin-5-ium chloride]	120 nM	440 nM		
Cc1cc2c(cc1C(O)CN1CCN3C[C@H](c4ccc(F)c(C#N)c4C)OC[C@@H]3C1)COC2=O (single isomer, unassigned) [Example 26, trifluoroacetate]			220 nM	250 nM
Cc1c([C@@H]2CN3CCN(C[C@H](O)c4ccc5c(c4C)COC5=O)C[C@H]3CO2)ccc2c1COC2=O [Example 3, 5-((R)-1-hydroxy-2-((3R,9aS)-3-(4-methyl-1-oxo-1,3-dihydroisobenzofuran-5-yl)hexahydropyrazino[2,1-c][1,4]oxazin-8(1H)-yl)ethyl)-4-methylisobenzofuran-1(3H)-one]	50 nM	120 nM		
Cc1c([C@H]2CN3CCN(C[C@H](O)c4ccc5c(c4)COC5=O)C[C@@H]3CN2)ccc(F)c1C#N [Example 108]	100 nM	100 nM		
Cc1c([C@@H]2CN3CCN(CC(O)c4cccc(-n5cnnn5)c4)C[C@@H]3CO2)ccc(F)c1C#N (single isomer, unassigned) [Example 22]	440 nM	310 nM		
COc1c(C#N)ccc(CCN2CCN3C[C@@H](c4ccc5c(c4C)COC5=O)OC[C@@H]3C2)c1C [Example 82]	80 nM	60 nM		
Cc1c([C@@H]2CN3CCN(CCc4cc(F)c(C#N)c(F)c4)C[C@H]3CO2)ccc2c1COC2=O [Example 98]	90 nM	170 nM		
Cc1c([C@@H]2CN3CCN(CCc4ccc5c(c4Br)COC5=O)C[C@H]3CO2)ccc2c1COC2=O [Example 91]	210 nM	90 nM		
COc1cc(CCN2CCN3C[C@@H](c4ccc5c(c4C)COC5=O)NC[C@@H]3C2)ccc1C#N [Example 101, 2-Methoxy-4-(2-((7R,9aR)-7-(4-methyl-1-oxo-1,3-dihydroisobenzofuran-5-yl)hexahydro-1H-pyrazino[1,2-a]pyrazin-2(6H)-yl)ethyl)benzonitrile]	100 nM	210 nM		
